Experiments:
Format in all cases: in vivo
[1] = test system: corn (Zea mays L.), ZEAMX; assay: Test Example 2 post-emergence (foliage treatment) herbicidal activity, ZEAMX; details: 63 g a.i./ha
Text: (§1) Upland field soil was put into a 1/170,000 ha pot, and seeds of various plants were sown. Then, when the plants reached predetermined leaf stages {1. barnyardgrass (Echinochloa crus-galli L.), ECHCG: 1.1-2.1 leaf stage, 2. crabgrass (Digitaria sanguinalis L.), DIGSA: 1.0-2.0 leaf stage, 3. green foxtail (Setaria viridis L.), SETVI: 1.0-2.2 leaf stage, 4. redroot pigweed (Amaranthus retroflexus L.), AMARE: 0.1-1.5 leaf stage, 5. prickly sida (Sida spinosa L.), SIDSP: 0.1-0.6 leaf stage, 6. velvetleaf (Abutilon theophrasti), ABUTH: 0.1-0.6 leaf stage, 7. common cocklebur (Xanthium strumarium L.), XANST: 0.1 leaf stage, 8. rice (Oryza sativa L.), ORYSA; 1.0-2 leaf stage, 9. wheat (Triticum aestivum L.), TRZAX: 2.3-3.5 leaf stage, 10. corn (Zea mays L.), ZEAMXN 2.1-2.6 leaf stage, 11. soybean (Glycine max Merr.), GLXMA: primary leaf stage}, a wettable powder or emulsifiable concentrate having the compound of the present invention formulated in accordance with a usual formulation method, was weighed so that the active ingredient would be a predetermined amount, and diluted with water in an amount of 500 L/ha. To the diluted solution, 0.1% (v/v) of an agricultural spreader was added. The herbicide adjusted was applied by a small size sprayer for foliage treatment. On the 20th to 23rd day after the application of the herbicide, the growth of the respective plants was visually observed, and the herbicidal effects were evaluated by growth controlling degrees (%) ranging from 0 (equivalent to the untreated control) to 100 (complete kill), whereby the results shown in Table 5, were obtained. Compound Nos. in Table 5 correspond to Compound Nos. in Table 1 and 2 given hereinbefore.

[2] = test system: barnyardgrass (Echinochloa crus-galli L.): ECHCG; assay: Test Example 1 pre-emergence herbicidal activity, ECHCG; details: Rate 63 g a.i./ha, visually observed 20th to 23rd day after application
Text: (§2) Upland field soil was put into a 1/170,000 ha pot, and seeds of various plants {1. barnyardgrass (Echinochloa crus-galli L.): ECHCG, 2. crabgrass (Digitaria sanguinalis L.): DIGSA, 3. green foxtail (Setaria viridis L.): SETVI, 4. redroot pigweed (Amaranthus retroflexus L.): AMARE, 5. prickly sida (Sida spinosa L.): SEDSP, 6. velvetleaf (Abutilon theophrasti): ABUTH, 7. common cocklebur (Xanthium strumarium L.): XANST, 8. rice (Oryza sativa L.): ORYSA, 9. wheat (Triticum aestivum L.): TRZAX, 10. corn (Zea mays L.): ZEAMX, 11. soybean (Glycine max Merr.): GLXMA} were sown. Then, one day after the sowing, a wettable powder or emulsifiable concentrate having the compound of the present invention formulated in accordance with a usual formulation method, was weighed so that the active ingredient would be a predetermined amount and diluted with water in an amount of 500 L/ha. The herbicide adjusted was applied by a small size sprayer for preemergence treatment. On the 20th to 23rd day after the application of the herbicide, the growth of the respective plants was visually observed, and the herbicidal effects were evaluated by growth controlling degrees (%) ranging from 0 (equivalent to the untreated control) to 100 (complete kill), whereby the results shown in Table 4, were obtained. Compound Nos. in Table 4 correspond to Compound Nos. in Table 1 and 2 given hereinbefore.

[3] = test system: corn (Zea mays L.): ZEAMX; assay: Test Example 1 pre-emergence herbicidal activity, ZEAMX; details: Rate 63 g a.i./ha, visually observed 20th to 23rd day after application
Text: as §2

[4] = test system: prickly sida (Sida spinosa L.): SEDSP; assay: Test Example 1 pre-emergence herbicidal activity, SIDSP; details: Rate 63 g a.i./ha, visually observed 20th to 23rd day after application
Text: as §2

[5] = test system: velvetleaf (Abutilon theophrasti), ABUTH; assay: Test Example 2 post-emergence (foliage treatment) herbicidal activity, ABUTH; details: 63 g a.i./ha
Text: as §1

[6] = test system: barnyardgrass (Echinochloa crus-galli L.), ECHCG; assay: Test Example 2 post-emergence (foliage treatment) herbicidal activity, ECHCG; details: 63 g a.i./ha
Text: as §1

[7] = test system: green foxtail (Setaria viridis L.), SETVI; assay: Test Example 2 post-emergence (foliage treatment) herbicidal activity, SETVI; details: 63 g a.i./ha
Text: as §1

[8] = test system: rice (Oryza sativa L.): ORYSA; assay: Test Example 1 pre-emergence herbicidal activity, ORYSA; details: Rate 63 g a.i./ha, visually observed 20th to 23rd day after application
Text: as §2

[9] = test system: soybean (Glycine max Merr.), GLXMA; assay: Test Example 2 post-emergence (foliage treatment) herbicidal activity, GLXMA; details: 63 g a.i./ha
Text: as §1

[10] = test system: green foxtail (Setaria viridis L.): SETVI; assay: Test Example 1 pre-emergence herbicidal activity, SETVI; details: Rate 63 g a.i./ha, visually observed 20th to 23rd day after application
Text: as §2

[11] = test system: prickly sida (Sida spinosa L.), SIDSP; assay: Test Example 2 post-emergence (foliage treatment) herbicidal activity, SIDSP; details: 63 g a.i./ha
Text: as §1

[12] = test system: crabgrass (Digitaria sanguinalis L.): DIGSA; assay: Test Example 1 pre-emergence herbicidal activity, DIGSA; details: Rate 63 g a.i./ha, visually observed 20th to 23rd day after application
Text: as §2

[13] = test system: soybean (Glycine max Merr.): GLXMA; assay: Test Example 1 pre-emergence herbicidal activity, GLXMA; details: Rate 63 g a.i./ha, visually observed 20th to 23rd day after application
Text: as §2

[14] = test system: rice (Oryza sativa L.), ORYSA; assay: Test Example 2 post-emergence (foliage treatment) herbicidal activity, ORYSA; details: 63 g a.i./ha
Text: as §1

[15] = test system: crabgrass (Digitaria sanguinalis L.), DIGSA; assay: Test Example 2 post-emergence (foliage treatment) herbicidal activity, DIGSA; details: 63 g a.i./ha
Text: as §1

[16] = test system: redroot pigweed (Amaranthus retroflexus L.): AMARE; assay: Test Example 1 pre-emergence herbicidal activity, AMARE; details: Rate 63 g a.i./ha, visually observed 20th to 23rd day after application
Text: as §2

[17] = test system: wheat (Triticum aestivum L.), TRZAX; assay: Test Example 2 post-emergence (foliage treatment) herbicidal activity, TRZAX; details: 63 g a.i./ha
Text: as §1

[18] = test system: velvetleaf (Abutilon theophrasti): ABUTH; assay: Test Example 1 pre-emergence herbicidal activity, ABUTH; details: Rate 63 g a.i./ha, visually observed 20th to 23rd day after application
Text: as §2

[19] = test system: wheat (Triticum aestivum L.): TRZAX; assay: Test Example 1 pre-emergence herbicidal activity, TRZAX; details: Rate 63 g a.i./ha, visually observed 20th to 23rd day after application
Text: as §2

Structure (SMILES)	growth controlling degree, ZEAMX [1] [%]	Pre-emergence Herbicidal Activity ECHCG (growth controlling degree) [2] [%]	Pre-emergence Herbicidal Activity ZEAMX (growth controlling degree) [3] [%]	Pre-emergence Herbicidal Activity SIDSP (growth controlling degree) [4] [%]	growth controlling degree, ABUTH [5] [%]	growth controlling degree, ECHCO [6] [%]	growth controlling degree, SETVI [7] [%]	Pre-emergence Herbicidal Activity ORYSA (growth controlling degree) [8] [%]	growth controlling degree, GLXMA [9] [%]	Pre-emergence Herbicidal Activity SETVI (growth controlling degree) [10] [%]	growth controlling degree, SIDSP [11] [%]	Pre-emergence Herbicidal Activity DIGSP (growth controlling degree) [12] [%]	Pre-emergence Herbicidal Activity GLXMA (growth controlling degree) [13] [%]	growth controlling degree, ORYSA [14] [%]	growth controlling degree, DIGSP [15] [%]	Pre-emergence Herbicidal Activity AMARE (growth controlling degree) [16] [%]	growth controlling degree, TRZAX [17] [%]	Pre-emergence Herbicidal Activity ABUTH (growth controlling degree) [18] [%]	Pre-emergence Herbicidal Activity TRZAX (growth controlling degree) [19] [%]
COc1c(Cl)cc(F)c(-c2nn(C)c(OC(F)F)c2Cl)c1NC(=O)C=Cc1ccccc1F [Compound 1-256]	30	60	0	60	100	60	90	30	60	70	100	90	0	80	60	100	60	70	10
COc1c(Cl)cc(F)c(-c2nn(C)c(OC(F)F)c2Cl)c1NC(=O)C=Cc1cccc(F)c1 [Compound 1-257]	30	30	0	60	100	60	70	20	40	10	100	10	0	40	50	100	50	10	0
COc1c(Cl)cc(F)c(-c2nn(C)c(OC(F)F)c2Cl)c1NC(=O)c1ccc(C)cc1 [Compound 1-261]	40	80	0	100	100	100	100	40	70	98	100	100	0	70	95	100	30	80	10
COCCC(=O)Nc1c(OC)c(Cl)cc(F)c1-c1nn(C)c(OC(F)F)c1Cl [Compound 1-40]	70	100	60	100	100	100	100	80	95	100	100	100	30	100	80	100	50	100	60
COc1c(Cl)cc(F)c(-c2nn(C)c(OC(F)F)c2Cl)c1NC(=O)CC(C)(C)C [Compound 1-265]	30	20	0	100	95	60	80	10	50	70	100	100	0	40	60	100	30	100	20
COc1c(Cl)cc(F)c(-c2nn(C)c(OC(F)F)c2Cl)c1NC(=O)OCC1CCCCC1 [Compound 1-73]	10	30	0	20	100	100	70	10	50	60	100	20	0	50	10	100	50	10	0
